Experimental data published in publication PMC12888861, “Antibacterial activity of enmetazobactam against Acinetobacter spp.: a molecular dissection of mechanism of action and resistance determinants” (Antimicrobial Agents and Chemotherapy, 2025).
Read-outs that look alike come from different tables or passages of the source.

Legend:
[1] = test system: A. baumannii ATCC 19606 cells; assay: Cell morphology assay, bright-field microscopy; assay type: cell-based, Acinetobacter baumannii; settings: A. baumannii ATCC 19606, overnight exposure at 1× MIC
Procedure: In order to confirm the involvement of PBPs as targets of enmetazobactam, cell morphology assays involving exposure to enmetazobactam and sulbactam were performed following the methodology described in Supplementary materials and methods.
To confirm the involvement of PBPs as targets of enmetazobactam, the cellular morphology of A. baumannii ATCC 19606 reference strain was analyzed after exposure to the compound at different concentrations. Bright-field microscopy was used to monitor the cell morphology. […] For microscopic visualization, aliquots of each sample were obtained, stained with crystal violet solution and observed using an Olympus BX61 microscope (Olympus).
Changes in cell morphology were determined on the basis of alterations in septal integrity, abnormal elongation, spheroplast formation and filamentation, patterns previously associated with the selective inhibition of PBP1, PBP2 and PBP3 in Gram-negative bacilli. Specifically, PBP1 inhibition has been linked to cell lysis, PBP2 inhibition has been linked to spherification, and PBP3 inhibition to defective cell division and filament formation (1, 2). The results were qualitatively compared across different treatments to infer the potential selectivity of enmetazobactam for specific PBPs.

[2] = test system: A. non-baumannii isolates (n = 87); assay: MIC, broth microdilution (EUCAST), A. non-baumannii isolates; assay type: cell-based, Acinetobacter spp. (non-baumannii); settings: for MIC: in combinations ETZ fixed at 8 mg/L
Text: The bacterial strains used in this study comprised 208 clinical isolates from the Spanish National Acinetobacter spp. 2020 Multicenter Collection, which was previously characterized in detail by our research group, including whole-genome sequencing, phylogenetics studies, clonal dynamics, and resistance mechanisms ([2], [29]). Additionally, a collection of A. baumannii ATCC 17978 transformants coding the blaOXA-23, blaOXA-24/40, blaOXA-51, blaOXA-58, blaOXA-143, and blaOXA-201 genes, previously constructed and described by our group ([30]), was used to determine the activity of enmetazobactam against strains carrying the main CHDLs of A. baumannii.
The antimicrobial susceptibility of the 208 Acinetobacter spp. isolates was assessed using the broth microdilution method, as described in the European Committee on Antimicrobial Susceptibility Testing (EUCAST) v.15 guidelines (http://www.eucast.org/clinical_breakpoints). […] MICs for enmetazobactam alone were assessed as well. […] Subsequently, MIC testing was also conducted with a collection of A. baumannii ATCC 17978 transformants expressing clinically relevant OXA-like carbapenemase genes.
The A. baumannii ATCC 19606 strain was used as the reference strain in all susceptibility experiments, in duplicate assays. Antibiotics were purchased from Sigma-Aldrich, except enmetazobactam and durlobactam, which were obtained from Advanz Pharma and MedChemExpress, respectively.

`C[C@@H](O)[C@H]1C(=O)N2C(C(=O)O)=C(SCCN=CN)C[C@H]12` [imipenem] was tested, and the cell morphology [1] was “rounded and spherical cells”, the “MIC distribution 0.12” value [2] was 71.3 and the MIC ([2]; Acinetobacter baylyi, isolate NO-Ab27, Acinetobacter baylyi, read-out: MIC) was 0.12 µg/mL. For the same compound, the MIC ([2]; Acinetobacter beijerinckii, isolate NO-Ab122, Acinetobacter beijerinckii, read-out: MIC) was 0.12 µg/mL, the MIC ([2]; Acinetobacter bereziniae, isolate NO-Ab70, Acinetobacter bereziniae, read-out: MIC) was 0.12 µg/mL and the MIC ([2]; Acinetobacter bereziniae, isolate NO-Ab84, Acinetobacter bereziniae, read-out: MIC) was 0.12 µg/mL. The MIC ([2]; Acinetobacter bereziniae, isolate NO-Ab104, Acinetobacter bereziniae, read-out: MIC) was 0.12 µg/mL, the MIC ([2]; Acinetobacter bereziniae, isolate NO-Ab114, Acinetobacter bereziniae, read-out: MIC) was 0.12 µg/mL and the MIC ([2]; Acinetobacter bereziniae, isolate NO-Ab115, Acinetobacter bereziniae, read-out: MIC) was 0.25 µg/mL. The MIC ([2]; Acinetobacter bereziniae, isolate NO-Ab116, Acinetobacter bereziniae, read-out: MIC) was 0.25 µg/mL, the MIC ([2]; Acinetobacter bereziniae, isolate NO-Ab117, Acinetobacter bereziniae, read-out: MIC) was 0.12 µg/mL and the MIC ([2]; Acinetobacter bereziniae, isolate NO-Ab129, Acinetobacter bereziniae, read-out: MIC) was 0.25 µg/mL. For the same compound, the MIC ([2]; Acinetobacter bereziniae, isolate NO-Ab156, Acinetobacter bereziniae, read-out: MIC) was 0.12 µg/mL, the MIC ([2]; Acinetobacter calcoaceticus, isolate NO-Ab85, Acinetobacter calcoaceticus, read-out: MIC) was 0.12 µg/mL and the MIC ([2]; Acinetobacter calcoaceticus, isolate NO-Ab94, Acinetobacter calcoaceticus, read-out: MIC) was ≤ 0.06 µg/mL. For the same compound, the MIC ([2]; Acinetobacter calcoaceticus, isolate NO-Ab108, Acinetobacter calcoaceticus, read-out: MIC) was ≤ 0.06 µg/mL, the MIC ([2]; Acinetobacter calcoaceticus, isolate NO-Ab161, Acinetobacter calcoaceticus, read-out: MIC) was 0.12 µg/mL and the MIC ([2]; Acinetobacter calcoaceticus, isolate NO-Ab198, Acinetobacter calcoaceticus, read-out: MIC) was ≤ 0.06 µg/mL. It also gave an MIC ([2]; Acinetobacter calcoaceticus, isolate NO-Ab205, Acinetobacter calcoaceticus, read-out: MIC) of 0.25 µg/mL, an MIC ([2]; Acinetobacter calcoaceticus, isolate NO-Ab211, Acinetobacter calcoaceticus, read-out: MIC) of 0.12 µg/mL and an MIC ([2]; Acinetobacter courvalinii, isolate NO-Ab216, Acinetobacter courvalinii, read-out: MIC) of 0.5 µg/mL. The MIC ([2]; Acinetobacter dispersus, isolate NO-Ab2, Acinetobacter dispersus, read-out: MIC) was ≤ 0.06 µg/mL, the MIC ([2]; Acinetobacter guillouiae, isolate NO-Ab69, Acinetobacter guillouiae, read-out: MIC) was ≤ 0.06 µg/mL and the MIC ([2]; Acinetobacter guillouiae, isolate NO-Ab74, Acinetobacter guillouiae, read-out: MIC) was 0.25 µg/mL. For the same compound, the MIC ([2]; Acinetobacter haemolyticus, isolate NO-Ab92, Acinetobacter haemolyticus) was 0.12 µg/mL, the MIC ([2]; Acinetobacter haemolyticus, isolate NO-Ab177, Acinetobacter haemolyticus) was 0.12 µg/mL and the MIC ([2]; Acinetobacter haemolyticus, isolate NO-Ab217, Acinetobacter haemolyticus) was 0.12 µg/mL. The MIC ([2]; Acinetobacter johnsonii, isolate NO-Ab101, Acinetobacter johnsonii, read-out: MIC) was 0.12 µg/mL, the MIC ([2]; Acinetobacter junii, isolate NO-Ab76, Acinetobacter junii, read-out: MIC) was ≤ 0.06 µg/mL and the MIC ([2]; Acinetobacter junii, isolate NO-Ab77, Acinetobacter junii, OXA-24/40, read-out: MIC) was 32 µg/mL. The MIC ([2]; Acinetobacter lactucae, isolate NO-Ab60, Acinetobacter dijkshoorniae, read-out: MIC) was 0.25 µg/mL, the MIC ([2]; Acinetobacter lactucae, isolate NO-Ab63, Acinetobacter dijkshoorniae, read-out: MIC) was 0.25 µg/mL and the MIC ([2]; Acinetobacter lactucae, isolate NO-Ab65, Acinetobacter dijkshoorniae, read-out: MIC) was 0.25 µg/mL. The MIC ([2]; Acinetobacter lactucae, isolate NO-Ab86, Acinetobacter dijkshoorniae, read-out: MIC) was 0.12 µg/mL, the MIC ([2]; Acinetobacter lactucae, isolate NO-Ab88, Acinetobacter dijkshoorniae, read-out: MIC) was 0.12 µg/mL and the MIC ([2]; Acinetobacter lactucae, isolate NO-Ab91, Acinetobacter dijkshoorniae, read-out: MIC) was 0.12 µg/mL. For the same compound, the MIC ([2]; Acinetobacter lactucae, isolate NO-Ab121, Acinetobacter dijkshoorniae, read-out: MIC) was 0.12 µg/mL, the MIC ([2]; Acinetobacter lactucae, isolate NO-Ab125, Acinetobacter dijkshoorniae, read-out: MIC) was ≤ 0.06 µg/mL and the MIC ([2]; Acinetobacter lactucae, isolate NO-Ab160, Acinetobacter dijkshoorniae, read-out: MIC) was 0.12 µg/mL. For the same compound, the MIC ([2]; Acinetobacter nosocomialis, isolate NO-Ab43, Acinetobacter nosocomialis, read-out: MIC) was ≤ 0.06 µg/mL, the MIC ([2]; Acinetobacter nosocomialis, isolate NO-Ab68, Acinetobacter nosocomialis, OXA-24/40, read-out: MIC) was 32 µg/mL and the MIC ([2]; Acinetobacter nosocomialis, isolate NO-Ab98, Acinetobacter nosocomialis, read-out: MIC) was 0.12 µg/mL. For the same compound, the MIC ([2]; Acinetobacter nosocomialis, isolate NO-Ab208, Acinetobacter nosocomialis, read-out: MIC) was 0.12 µg/mL, the MIC ([2]; Acinetobacter pittii, isolate NO-Ab59, Acinetobacter pittii, read-out: MIC) was 0.25 µg/mL and the MIC ([2]; Acinetobacter pittii, isolate NO-Ab66, Acinetobacter pittii, read-out: MIC) was 0.25 µg/mL. For the same compound, the MIC ([2]; Acinetobacter pittii, isolate NO-Ab73, Acinetobacter pittii, read-out: MIC) was ≤ 0.06 µg/mL, the MIC ([2]; Acinetobacter pittii, isolate NO-Ab75, Acinetobacter pittii, read-out: MIC) was 0.25 µg/mL and the MIC ([2]; Acinetobacter pittii, isolate NO-Ab78, Acinetobacter pittii, read-out: MIC) was ≤ 0.06 µg/mL. For the same compound, the MIC ([2]; Acinetobacter pittii, isolate NO-Ab82, Acinetobacter pittii, read-out: MIC) was ≤ 0.06 µg/mL and the MIC ([2]; Acinetobacter pittii, isolate NO-Ab89, Acinetobacter pittii, read-out: MIC) was 0.12 µg/mL.
